Experimental data from patent US10548321B2 (priority 2009, dated 2020).
Read-outs that look alike come from different tables or passages of the source.

System: Pyricularia oryzae
Format: cell-based
Settings: single active, absorption at 405 nm 7 days after inoculation, 18° C

Row | SMILES | Observed efficacy (1 ppm) | Observed efficacy (0.004 ppm)
1 | CC1(C)C(C=C(Cl)Cl)C1C(=O)OC(C#N)c1cccc(Oc2ccccc2)c1 (stereo not drawn) [alpha-Cypermethrin, alpha-cypermethrin] | 1% | –
2 | COC(=O)N(OC)c1ccccc1COc1ccn(-c2ccc(Cl)cc2)n1 [Pyraclostrobin, pyraclostrobin] | – | 23%
